What follows are molecules tested against Escherichia coli MAT (eMAT) (Escherichia coli, UniProt P0A817) (assay: MAT assay, turnover of S/Se-Met analogs to S(Se)AM analogs (RP-HPLC end point)). Details: 2 mM Met analog, 1 mM ATP, 5 μM MAT, pH 8, 4 h, 37° C.; average of two assays.
Format: biochemical
Description: Standard uniform assay conditions (2 mM Met analog, 1 mM ATP, 5 μM MAT, 25 mM Tris, 5 mM MgCl2, 50 mM KCl, pH 8, 4 h) were adopted to facilitate this broad assessment. For the thermophilic counterpart (mMAT), reactions were conducted at 65° C., while all other reactions were incubated at 37° C. Production of SAM analogs was determined by an RP-HPLC end point assay to afford complete analysis of the desired SAM analog and/or any corresponding degradation products known to directly derive from the desired SAM analog intermediate. Putative SAM analog and SAM-derived degradative product formation was subsequently confirmed via high-resolution mass spectrometry (HRMS) analysis for all positive reactions (see Table 2).
(§1) To monitor MAT reactions, analytical RP HPLC employed a Luna C18 column (5 μm, 4.6 mm×250 mm; Phenomenex, Torrance, Calif., USA) [gradient of 10% B to 40% B over 15 min, 40% B to 75% B over 5 min (A=10 mM NaH2PO4, 5 mM octane sulfonic acid, pH was adjusted to 3.5 using phosphoric acid; B=acetonitrile) flow rate=1 mL min^−1; A254].
(§2) In vitro MAT reactions were conducted in a volume of 50 μl with 2 mM S/Se-alkylated analog (compounds 2-30), 1 mM ATP and 5 μM purified MAT in 25 mM Tris buffer pH 8.0, 5 mM MgCl2, 50 mM KCl for 4 h. The sMAT and mMAT reactions were conducted at 65° C. while hMATs and eMAT were incubated at 37° C. Reactions were quenched by adding an equal volume of methanol followed by centrifugation (10,000×g for 15 min) to remove the precipitated protein and product formation for each reaction was subsequently analyzed by RP-HPLC using Method D (FIG. 15, first column). For each reaction, percent yield was based upon the integration of species at 254 nm and calculated by dividing the integrated area of product and/or decomposed product by the sum of integrated area of product and/or decomposed product and the remaining substrate. The assays were repeated twice under identical conditions, and Table 2 (and FIG. 5) represents an average value of two assays. The inclusion of adenine and 5′-R-thio-5′-adenosine in these calculations is based upon the established SAM and ATP chemical decomposition pathways which indicate adenine and 5′-R-thio-5′-adenosine to only derive from SAM (not ATP). All putative products were subsequently confirmed by high resolution electrospray ionization (ESI) mass spectra with positive (+) and/or negative (−) mode.

Compared with CC(C)=CCSCC[C@H](N)C(=O)O [compound 19, (2S)-2-amino-4-[(3-methylbut-2-en-1-yl)sulfanyl]butanoic acid], N#CCSCC[C@H](N)C(=O)O [compound 6, (2S)-2-amino-4-[(cyanomethyl)sulfanyl]butanoic acid] is lower in “Percentage Turn-over eMAT” value: 3% for the first, 2% for the second.

These molecules were tested against T1, Sulfolobus solfataricus MAT (sMAT) (Saccharolobus solfataricus, UniProt Q980S9) (assay: not given). Details: 2 mM analog, 1 mM ATP, 5 μM sMAT, pH 8.0, 4 h at 65° C.; average of two assays.
T1 sequence (Q980S9 1-404): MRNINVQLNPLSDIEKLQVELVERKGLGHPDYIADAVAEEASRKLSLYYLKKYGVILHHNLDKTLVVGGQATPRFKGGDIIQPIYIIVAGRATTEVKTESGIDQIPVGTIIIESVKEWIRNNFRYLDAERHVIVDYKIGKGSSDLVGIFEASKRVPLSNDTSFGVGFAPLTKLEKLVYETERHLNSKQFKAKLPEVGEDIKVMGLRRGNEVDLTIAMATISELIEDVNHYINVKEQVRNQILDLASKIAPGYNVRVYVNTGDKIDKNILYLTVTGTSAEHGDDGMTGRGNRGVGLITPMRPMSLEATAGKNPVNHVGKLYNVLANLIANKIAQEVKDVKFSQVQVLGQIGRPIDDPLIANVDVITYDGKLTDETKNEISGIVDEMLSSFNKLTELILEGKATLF
Format: biochemical
Description: In-vitro sMAT assay: In vitro sMAT reactions were conducted in a volume of 50 μl with 2 mM S/Se-alkylated analog, 1 mM ATP and 5 μM purified sMAT in 25 mM Tris buffer pH 8.0, 5 mM MgCl2, 50 mM KCl for 4 h at 65° C. Reactions were quenched by adding an equal volume of methanol followed by centrifugation (10,000×g for 15 min) to remove the precipitated protein and product formation for each reaction was subsequently analyzed by reverse phase HPLC (RP-HPLC) using method described below. For each reaction, percent yield was based upon the integration of species at 254 nm and calculated by dividing the integrated area of product and/or decomposed product by the sum of integrated area of product and/or decomposed product and the remaining substrate. The assays were repeated twice under identical conditions, and Table 4 (and FIG. 17) represents an average value of two assays. The inclusion of adenine and 5′-R-thio-5′-adenosine in these calculations is based upon the established SAM and ATP chemical decomposition pathways which indicate adenine and 5′-R-thio-5′-adenosine to only derive from SAM (not ATP). All putative products were subsequently confirmed by high resolution electrospray ionization (ESI) mass spectra with positive (+) and/or negative (−) mode.
RP-HPLC method: Reactions were quenched by the addition of equal volume of methanol followed by centrifugation at 10,000 g for 15 min to remove precipitated protein before applying on an analytical Varian ProStar HPLC [Luna C18 column, 5 μm, 4.6 mm×250 mm; Phenomenex, Torrance, Calif., USA; gradient of 10% B to 40% B over 15 min, 40% B to 75% B over 5 min (A=10 mM NaH2PO4, 5 mM octane sulfonic acid, pH was adjusted to 3.5 using phosphoric acid; B=acetonitrile) flow rate=1 mL min^−1; A254].

Compared with CC(C)=CCSCC[C@H](N)C(=O)O [compound 19, (2S)-2-amino-4-[(3-methylbut-2-en-1-yl)sulfanyl]butanoic acid], N#CCSCC[C@H](N)C(=O)O [compound 6, (2S)-2-amino-4-[(cyanomethyl)sulfanyl]butanoic acid] is higher in “Percentage Turn-Over (sMAT)” value: 12% for the first, 68% for the second.

The molecules below were run against human MAT I catalytic subunit alpha (hMAT1A) (Homo sapiens, UniProt Q00266) (assay: MAT assay, turnover of S/Se-Met analogs to S(Se)AM analogs (RP-HPLC end point)). Details: 2 mM Met analog, 1 mM ATP, 5 μM MAT, pH 8, 4 h, 37° C.; average of two assays.
Format: biochemical
Description: (§3) Standard uniform assay conditions (2 mM Met analog, 1 mM ATP, 5 μM MAT, 25 mM Tris, 5 mM MgCl2, 50 mM KCl, pH 8, 4 h) were adopted to facilitate this broad assessment. For the thermophilic counterpart (mMAT), reactions were conducted at 65° C., while all other reactions were incubated at 37° C. Production of SAM analogs was determined by an RP-HPLC end point assay to afford complete analysis of the desired SAM analog and/or any corresponding degradation products known to directly derive from the desired SAM analog intermediate.
as §1
as §2, with “The” for “In vitro MAT reactions were conducted in a volume of 50 μl with 2 mM S/Se-alkylated analog (compounds 2-30), 1 mM ATP and 5 μM purified MAT in 25 mM Tris buffer pH 8.0, 5 mM MgCl2, 50 mM KCl for 4 h. The”

First: CC(C)=CCSCC[C@H](N)C(=O)O [compound 19, (2S)-2-amino-4-[(3-methylbut-2-en-1-yl)sulfanyl]butanoic acid]
Second: N#CCSCC[C@H](N)C(=O)O [compound 6, (2S)-2-amino-4-[(cyanomethyl)sulfanyl]butanoic acid]
The “Percentage Turn-over hMAT1A” value of the first is lower: 0% for the first, 2% for the second.

These molecules were tested against human MAT II catalytic alpha and regulatory beta subunit (hMAT2) (Homo sapiens, UniProt P31153) in the same assay as above. Details: 2 mM Met analog, 1 mM ATP, 5 μM MAT, pH 8, 4 h, 37° C.; average of two assays.
Format: biochemical
Description: as §3, §1
as §2, with “The” for “In vitro MAT reactions were conducted in a volume of 50 μl with 2 mM S/Se-alkylated analog (compounds 2-30), 1 mM ATP and 5 μM purified MAT in 25 mM Tris buffer pH 8.0, 5 mM MgCl2, 50 mM KCl for 4 h. The”

Going from CC(C)=CCSCC[C@H](N)C(=O)O [compound 19, (2S)-2-amino-4-[(3-methylbut-2-en-1-yl)sulfanyl]butanoic acid] to N#CCSCC[C@H](N)C(=O)O [compound 6, (2S)-2-amino-4-[(cyanomethyl)sulfanyl]butanoic acid], the “Percentage Turn-over hMAT2” value rises from 6% to 20%.

Going from NC/C=C/C[Se]CC[C@H](N)C(=O)O [compound 24-Se, (2S)-2-amino-4-{[(2E)-4-aminobut-2-en-1-yl]selanyl}butanoic acid] to CC[Se]CC[C@H](N)C(=O)O [compound 3-Se, (2S)-2-amino-4-(ethylselanyl)butanoic acid], the “Percentage Turn-over hMAT2” value rises from 25% to 82%.

First: CCC[Se]CC[C@H](N)C(=O)O [compound 8-Se, (2S)-2-amino-4-(propylselanyl)butanoic acid]
Second: CCCC[Se]CC[C@H](N)C(=O)O [compound 13-Se, (2S)-2-amino-4-(butylselanyl)butanoic acid]
The “Percentage Turn-over hMAT2” value of the first is higher: 74% for the first, 49% for the second.

C[Se]CC[C@H](N)C(=O)O [2-Se, L-selenomethionine, reference compound] and CSCC[C@H](N)C(=O)O [compound 2, L-methionine] are the same in “Percentage Turn-over hMAT2” value: 100% for the first, 100% for the second.

These molecules were tested against human MAT II catalytic alpha subunit alone (hMAT2A) (Homo sapiens, UniProt P31153) in the same assay as above. Details: 2 mM Met analog, 1 mM ATP, 5 μM MAT, pH 8, 4 h, 37° C.; average of two assays.
Format: biochemical
Description: as §3, §1
as §2, with “The” for “In vitro MAT reactions were conducted in a volume of 50 μl with 2 mM S/Se-alkylated analog (compounds 2-30), 1 mM ATP and 5 μM purified MAT in 25 mM Tris buffer pH 8.0, 5 mM MgCl2, 50 mM KCl for 4 h. The”

First: CC(C)=CCSCC[C@H](N)C(=O)O [compound 19, (2S)-2-amino-4-[(3-methylbut-2-en-1-yl)sulfanyl]butanoic acid]
Second: N#CCSCC[C@H](N)C(=O)O [compound 6, (2S)-2-amino-4-[(cyanomethyl)sulfanyl]butanoic acid]
The “Percentage Turn-over hMAT2A” value of the first is lower: 4% for the first, 13% for the second.

Going from NC/C=C/C[Se]CC[C@H](N)C(=O)O [compound 24-Se, (2S)-2-amino-4-{[(2E)-4-aminobut-2-en-1-yl]selanyl}butanoic acid] to CC[Se]CC[C@H](N)C(=O)O [compound 3-Se, (2S)-2-amino-4-(ethylselanyl)butanoic acid], the “Percentage Turn-over hMAT2A” value rises from 16% to 53%.

First: CCC[Se]CC[C@H](N)C(=O)O [compound 8-Se, (2S)-2-amino-4-(propylselanyl)butanoic acid]
Second: CCCC[Se]CC[C@H](N)C(=O)O [compound 13-Se, (2S)-2-amino-4-(butylselanyl)butanoic acid]
The “Percentage Turn-over hMAT2A” value of the first is lower: 24% for the first, 26% for the second.

C[Se]CC[C@H](N)C(=O)O [2-Se, L-selenomethionine, reference compound] and CSCC[C@H](N)C(=O)O [compound 2, L-methionine] are the same in “Percentage Turn-over hMAT2A” value: 100% for the first, 100% for the second.

Each molecule was assayed against T2, Methanocaldococcus jannaschii MAT (mMAT) (Methanocaldococcus jannaschii, UniProt Q58605) (assay: not given). Details: 2 mM Met analog, 1 mM ATP, 5 μM MAT, pH 8, 4 h, 65° C.; average of two assays.
T2 sequence (Q58605 1-406): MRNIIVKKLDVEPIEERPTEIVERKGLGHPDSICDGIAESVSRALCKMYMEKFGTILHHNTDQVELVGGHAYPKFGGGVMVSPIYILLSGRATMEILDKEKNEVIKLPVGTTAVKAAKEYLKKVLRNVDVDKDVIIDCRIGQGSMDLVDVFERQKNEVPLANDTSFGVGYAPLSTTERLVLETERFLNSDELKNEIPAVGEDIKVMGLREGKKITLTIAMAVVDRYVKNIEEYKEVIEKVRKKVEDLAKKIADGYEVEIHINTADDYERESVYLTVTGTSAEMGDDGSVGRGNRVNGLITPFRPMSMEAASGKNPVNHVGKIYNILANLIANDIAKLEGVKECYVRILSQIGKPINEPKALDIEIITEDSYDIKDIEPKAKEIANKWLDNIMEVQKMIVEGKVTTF
Format: biochemical
Description: as §3, §1
as §2, with “The” for “In vitro MAT reactions were conducted in a volume of 50 μl with 2 mM S/Se-alkylated analog (compounds 2-30), 1 mM ATP and 5 μM purified MAT in 25 mM Tris buffer pH 8.0, 5 mM MgCl2, 50 mM KCl for 4 h. The”

Going from CC(C)=CCSCC[C@H](N)C(=O)O [compound 19, (2S)-2-amino-4-[(3-methylbut-2-en-1-yl)sulfanyl]butanoic acid] to N#CCSCC[C@H](N)C(=O)O [compound 6, (2S)-2-amino-4-[(cyanomethyl)sulfanyl]butanoic acid], the “Percentage Turn-over mMAT” value falls from 13% to 6%.
